Data reported in patent publication US8288315B2, “Fungicide mixtures” (BASF SE, priority 2007, dated 2012).

Key:
[1] = test system: Botrytis cinerea; assay: Activity against gray mold on bell pepper leaves caused by Botrytis cinerea, 1 day protective application; assay type: in vivo; details: bell pepper seedlings, sprayed 1 day before inoculation, rated after 5 days, efficacy as % of untreated control
Procedure: (§1) The mixture was then made up with water to 100 ml.
The next day, the treated plants were inoculated with a spore suspension of Botrytis cinerea in a 2% strength biomalt solution. The test plants were then placed in a dark climatized chamber at 22 to 24° C. and high atmospheric humidity. After 5 days, the extent of the fungal infection on the leaves could be determined visually in %.
(§2) The visually determined percentages of infected leaf areas were converted into efficacies as % of the untreated control:
(§3) The efficacy (E) is calculated as follows using Abbot's formula: E=(1−α/β)·100 • α corresponds to the fungicidal infection of the treated plants in % and • β corresponds to the fungicidal infection of the untreated (control) plants in %
(§4) An efficacy of 0 means that the infection level of the treated plants corresponds to that of the untreated control plants; an efficacy of 100 means that the treated plants are not infected.

[2] = test system: Puccinia recondita; assay: Protective activity against Puccinia recondita on wheat (brown rust of wheat); assay type: in vivo; details: wheat seedlings, sprayed 1 day before inoculation, rated after a further 7 days, efficacy as % of untreated control
Procedure: as §1
The next day, the treated plants were inoculated with a spore suspension of brown rust of wheat (Puccinia recondita). The plants were then placed in a chamber with high atmospheric humidity (90 to 95%) at 20 to 22° C. for 24 hours. During this time, the spores germinated and the germ tubes penetrated into the leaf tissue. The following day, the test plants were returned to the greenhouse and cultivated at temperatures between 20 and 22° C. and at 65 to 70% relative atmospheric humidity for a further 7 days. The extent of the rust fungus development on the leaves was then determined visually.
as §2, §3, §4

| SMILES | Observed effect (%) ([1]; 0.016 ppm) | Observed effect (%) ([2]; 0.25 ppm) | Observed effect (%) ([1]; 0.25 ppm) | Observed effect (%) ([2]; 4 ppm) |
| --- | --- | --- | --- | --- |
| CC1(C)CCC(Cc2ccc(Cl)cc2)C1(O)Cn1cncn1 (stereo not drawn) [Metconazole, (1RS,5RS;1RS,5SR)-5-(4-chlorobenzyl)-2,2-dimethyl-1-(1H-1,2,4-triazol-1-ylmethyl)cyclopentanol] | 0 | 13 |  |  |
| CCCN(CCOc1c(Cl)cc(Cl)cc1Cl)C(=O)n1ccnc1 [Prochloraz, N-propyl-N-[2-(2,4,6-trichlorophenoxy)ethyl]imidazole-1-carboxamide] |  |  | 0 | 0 |
